From patent publication US9974304B2, “Use of macrocyclic picolinamides as fungicides” (DOW AGROSCIENCES LLC, priority 2013, dated 2018)

Row | melting point | Structure (SMILES)
1 | 66 to 70 °C | COc1ccnc(C(=O)N[C@H]2COC[C@H](Oc3ccccc3)[C@@H](CCC(C)C)[C@H](C)OC2=O)c1OC(C)=O [Compound 47]
2 | 75 to 81 °C | COc1ccnc(C(=O)N[C@H]2COC[C@H](Oc3ccccc3)[C@@H](Cc3ccccc3)[C@H](C)OC2=O)c1OC(C)=O [Compound 81]
